Reference: paper PMC3985256, “Synthesis of Brominated 2-Phenitidine Derivatives as Valuable Inhibitors of Cholinesterases for the Treatment of Alzheimer’s Disease” (Iranian Journal of Pharmaceutical Research : IJPR, 2014)
Where two headings read alike, the source gives them in different places.

Columns and labels:
Type in all cases: biochemical
lipoxygenase (LOX) = molecular target: T1, lipoxygenase (LOX) (Glycine max, UniProt P08170); test: Lipoxygenase inhibition assay; conditions: n = 3, mean ± sem; for inhibition at 500 µM: 0.5 mM
T1 sequence (P08170 1-839): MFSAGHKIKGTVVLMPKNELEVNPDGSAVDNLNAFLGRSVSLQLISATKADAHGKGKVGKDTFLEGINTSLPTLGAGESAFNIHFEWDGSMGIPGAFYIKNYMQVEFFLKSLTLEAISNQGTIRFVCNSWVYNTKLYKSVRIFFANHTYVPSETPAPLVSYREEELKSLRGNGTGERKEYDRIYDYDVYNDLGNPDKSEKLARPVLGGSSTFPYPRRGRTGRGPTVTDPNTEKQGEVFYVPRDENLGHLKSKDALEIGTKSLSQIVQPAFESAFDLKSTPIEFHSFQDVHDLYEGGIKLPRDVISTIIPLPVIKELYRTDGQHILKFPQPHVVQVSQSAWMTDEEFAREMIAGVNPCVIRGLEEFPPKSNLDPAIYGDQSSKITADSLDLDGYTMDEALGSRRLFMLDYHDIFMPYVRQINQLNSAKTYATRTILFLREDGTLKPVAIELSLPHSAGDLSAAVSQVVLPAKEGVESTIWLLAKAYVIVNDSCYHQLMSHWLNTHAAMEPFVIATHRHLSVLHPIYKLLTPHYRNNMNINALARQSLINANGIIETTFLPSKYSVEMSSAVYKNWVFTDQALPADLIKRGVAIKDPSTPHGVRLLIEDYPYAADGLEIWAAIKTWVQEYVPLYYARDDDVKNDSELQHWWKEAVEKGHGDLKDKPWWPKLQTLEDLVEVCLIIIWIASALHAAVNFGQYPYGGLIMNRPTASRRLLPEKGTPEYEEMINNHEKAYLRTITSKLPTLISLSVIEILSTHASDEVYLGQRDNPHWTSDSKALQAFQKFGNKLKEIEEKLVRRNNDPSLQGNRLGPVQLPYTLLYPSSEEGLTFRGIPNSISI
Procedure: Lipoxygenase activity was assayed according to the reported method ([18]-[20]) but with slight modifications. A total volume of 200 μL assay mixture contained 150 μL sodium phosphate buffer (100 mM, pH 8.0), 10 μL test compound and 15 μL purified lipoxygenase enzyme (Sigma, USA). The contents were mixed and pre-read at 234 nm and pre-incubated for 10 min at 25 °C. The reaction was initiated by the addition of 25 μL substrate solution. The change in absorbance was observed after 6 min at 234 nm. Synergy HT (BioTek, USA) 96-well plate reader was used in all experiments. All reactions were performed in triplicates. The positive and negative controls were included in the assay. Baicalein (0.5 mM well^-1) was used as a positive control. The percentage inhibition was calculated by formula as follows.

[1] = molecular target: acetylcholinesterase (AChE) (Homo sapiens, UniProt P22303); test: Acetylcholinesterase inhibition assay; conditions: for inhibition at 500 µM: read-out: Acetylcholinestrase (AChE) inhibition (%) at 0.5 mM
Chain of acetylcholinesterase (AChE) (P22303 32-614): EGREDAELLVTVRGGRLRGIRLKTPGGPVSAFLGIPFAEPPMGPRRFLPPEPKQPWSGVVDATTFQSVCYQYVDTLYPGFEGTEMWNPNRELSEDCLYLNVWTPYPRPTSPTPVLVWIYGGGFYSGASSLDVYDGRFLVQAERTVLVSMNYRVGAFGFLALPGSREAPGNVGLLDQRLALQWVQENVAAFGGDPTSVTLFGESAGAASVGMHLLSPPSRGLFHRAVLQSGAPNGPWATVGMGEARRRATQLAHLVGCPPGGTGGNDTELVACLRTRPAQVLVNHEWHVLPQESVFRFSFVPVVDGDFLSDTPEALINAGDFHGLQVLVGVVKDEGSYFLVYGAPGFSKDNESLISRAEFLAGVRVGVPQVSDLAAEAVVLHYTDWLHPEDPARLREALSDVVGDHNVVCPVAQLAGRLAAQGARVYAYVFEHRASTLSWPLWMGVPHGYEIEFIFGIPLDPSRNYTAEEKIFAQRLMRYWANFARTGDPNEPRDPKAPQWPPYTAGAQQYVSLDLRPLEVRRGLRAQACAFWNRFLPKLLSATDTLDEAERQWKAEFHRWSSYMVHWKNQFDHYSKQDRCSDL
Procedure: The AChE inhibition activity was performed according to the reported method ([14]) with slight modifications. Total volume of the reaction mixture was 100 μL. It contained 60 μL Na2HPO4 buffer with concentration of 50 mM and pH 7.7. Ten μL test compound (0.5 mM well^-1) was added, followed by the addition of 10 μL (0.005 unit well^-1) enzyme. The contents were mixed and pre-read at 405 nm. Then contents were pre-incubated for 10 min at 37 °C. The reaction was initiated by the addition of 10 μL of 0.5 mM well^-1 substrate (acetylthiocholine iodide), followed by the addition of 10 μL DTNB (0.5 mM well^-1). After 15 min of incubation at 37 °C, absorbance was measured at 405 nm. Synergy HT (BioTek, USA) 96-well plate reader was used in all experiments. All experiments were carried out with their respective controls in triplicate. […] The percent inhibition was calculated by the help of following equation )[19] (.
(§1) Inhibition %=Control-Test/Control×100
(§2) IC50 values (concentration at which there is 50% enzyme inhibition) of compounds were calculated using EZ-Fit Enzyme kinetics software (Perella Scientific Inc. Amherst, USA).

[2] = molecular target: butyrylcholinesterase (BChE) (Homo sapiens, UniProt P06276); test: Butyrylcholinesterase inhibition assay; conditions: for inhibition at 500 µM: read-out: Butyrylcholinesterase (BChE) inhibition (%) at 0.5 mM
Chain of butyrylcholinesterase (BChE) (P06276 29-602): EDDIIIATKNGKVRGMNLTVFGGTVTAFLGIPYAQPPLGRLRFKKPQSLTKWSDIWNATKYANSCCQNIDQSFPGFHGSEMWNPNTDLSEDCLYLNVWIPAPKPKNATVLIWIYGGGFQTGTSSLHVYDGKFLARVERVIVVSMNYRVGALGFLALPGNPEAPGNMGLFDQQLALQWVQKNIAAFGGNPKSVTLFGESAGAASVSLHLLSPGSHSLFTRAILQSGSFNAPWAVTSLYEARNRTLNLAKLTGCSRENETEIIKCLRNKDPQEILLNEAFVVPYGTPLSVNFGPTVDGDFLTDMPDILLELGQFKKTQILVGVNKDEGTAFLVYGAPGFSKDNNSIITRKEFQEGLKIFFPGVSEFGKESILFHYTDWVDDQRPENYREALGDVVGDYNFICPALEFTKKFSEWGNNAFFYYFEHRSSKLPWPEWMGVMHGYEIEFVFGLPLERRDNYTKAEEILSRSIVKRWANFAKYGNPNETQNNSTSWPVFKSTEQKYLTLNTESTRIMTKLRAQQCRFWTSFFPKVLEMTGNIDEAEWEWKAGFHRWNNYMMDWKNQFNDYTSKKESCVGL
Procedure: The BChE inhibition activity was performed according to the reported method ([14],[17]) with slight modifications. Total volume of the reaction mixture was 100 μL containing 60 μL, Na2HPO4 buffer, 50 mM and pH 7.7. Ten μL test compound 0.5 mM well^-1, followed by the addition of 10 μL (0. 5 unit well^-1) BChE. The contents were mixed and pre-read at 405 nm. Then contents were pre-incubated for 10 min at 37 °C. The reaction was initiated by the addition of 10 μL of 0.5 mM well^-1 substrate (butyrylthiocholine bromide), followed by the addition of 10 μL DTNB (0.5 mM well^-1). After 15 min of incubation at 37 °C, absorbance was measured at 405 nm. Synergy HT (BioTek, USA) 96-well plate reader was used in all experiments. All experiments were carried out with their respective controls in triplicate. […] The percent inhibition was calculated by the help of following equation.
as §1, §2

[3] = n = 3, mean ± sem, read-out: Butyrylcholinesterase (BChE) (IC50)
[4] = n = 3, mean ± sem, read-out: Acetylcholinestrase (AChE) (IC50)

Row | SMILES | IC50 (lipoxygenase (LOX)) [µM] | inhibition at 500 µM ([1]; 0.5 mM, n = 3, mean ± sem) [%] | Acetylcholinestrase (AChE) (IC50) ([1]; n = 3, mean ± sem) | inhibition at 500 µM (lipoxygenase (LOX)) [%] | Lipoxygenase (LOX) (IC50) (lipoxygenase (LOX)) | inhibition at 500 µM ([2]; 0.5 mM, n = 3, mean ± sem) [%] | IC50 [2, 3] [µM] | IC50 [1, 4] [µM] | IC50 [1] [µM] | inhibition at 500 µM [1] [%] | IC50 [2] [µM] | inhibition at 500 µM [2] [%]
1 | O=c1cc(-c2ccccc2)oc2cc(O)c(O)c(O)c12 [Baicalein, reference compound] | 22.4 ± 1.3 |  |  |  |  |  |  |  |  |  |  | 
2 | CCOc1cc(Br)c(Br)cc1NS(=O)(=O)c1ccccc1 [Compound 4, N-(4,5-dibromo-2-ethoxyphenyl)benzenesulfonamide] |  | 44.15 ± 0.19 | NIL | 11.6 ± 0.27 | NIL | 80.75 ± 0.17 | 70.21 ± 0.18 |  |  |  |  | 
3 | CCOc1cc(Br)c(Br)cc1N(CC)S(=O)(=O)c1ccccc1 [Compound 6a, N-Ethyl-N-(4,5-dibromo-2-ethoxyphenyl)benzenesulfonamide] |  | 28.9 ± 0.31 | NIL | 81.75 ± 0.71 |  | 85.33 ± 0.26 | 54.9 ± 0.85 |  |  |  |  | 
4 | CCOc1cc(Br)c(Br)cc1N(C(C)C)S(=O)(=O)c1ccccc1 [Compound 6b, N-Isopropyl -N-(4,5-dibromo-2-ethoxyphenyl)benzenesulfonamide] |  | 79.07 ± 0.38 |  | 83.54 ± 0.33 |  | 56.57 ± 0.55 | > 300 | 87.31 ± 0.11 |  |  |  | 
5 | C=CCN(c1cc(Br)c(Br)cc1OCC)S(=O)(=O)c1ccccc1 [Compound 6c, N-Allyl -N-(4,5-dibromo-2-ethoxyphenyl)benzenesulfonamide] |  | 72.22 ± 0.55 |  | 66.26 ± 0.54 |  | 80.75 ± 0.68 | 68.41 ± 0.21 | 143.91 ± 0.08 |  |  |  | 
6 | CCOc1cc(Br)c(Br)cc1N(CCBr)S(=O)(=O)c1ccccc1 [Compound 6d] |  |  |  | 83.95 ± 0.22 |  |  |  |  | 131.9 ± 0.16 | 73.21 ± 0.71 | 45.31 ± 0.17 | 87.2 ± 0.96
7 | CCOc1cc(Br)c(Br)cc1N(Cc1ccccc1)S(=O)(=O)c1ccccc1 [Compound 6e, N-Benzyl-N-(4,5-dibromo-2-ethoxyphenyl)benzenesulfonamide] |  | 79.27 ± 0.63 |  | 31.29 ± 0.18 | NIL | 85.92 ± 0.28 | 58.71 ± 0.08 | 88.21 ± 0.17 |  |  |  | 
8 | CCOc1cc(Br)c(Br)cc1N(CCc1ccccc1)S(=O)(=O)c1ccccc1 [Compound 6f, N-Phenylethyl-N-(4,5-dibromo-2-ethoxyphenyl)benzenesulfonamide] |  | 77.58 ± 0.66 |  | 90.02 ± 0.37 |  | 88.73 ± 0.14 | 53.41 ± 0.51 | 86.41 ± 0.51 |  |  |  | 
9 | CCOc1cc(Br)c(Br)cc1N(CCCc1ccccc1)S(=O)(=O)c1ccccc1 [Compound 6g, N-Phenylpropyl-N-(4,5-dibromo-2-ethoxyphenyl)benzenesulfonamide] |  | 77.18 ± 0.33 |  | 75.21 ± 0.11 |  | 90.14 ± 0.77 | 57.5 ± 0.63 | 158.41 ± 0.11 |  |  |  | 
10 | CCOc1cc(Br)c(Br)cc1N(Cc1ccc(Br)cc1)S(=O)(=O)c1ccccc1 [Compound 6h] |  | 74.31 ± 0.11 |  | 37.04 ± 0.28 | NIL | 87.91 ± 0.25 | 60.11 ± 0.34 | 145.6 ± 0.21 |  |  |  | 
11 | CCOc1cc(Br)c(Br)cc1N(Cc1cccc(Cl)c1)S(=O)(=O)c1ccccc1 [Compound 6i] |  | 82.54 ± 0.36 |  | 49.6 ± 0.64 | NIL | 91.78 ± 0.33 | 57.11 ± 0.46 | 73.9 ± 0.87 |  |  |  | 
12 | CCOc1cc(Br)c(Br)cc1N(Cc1ccc(F)cc1)S(=O)(=O)c1ccccc1 [Compound 6j] |  | 81.45 ± 0.12 |  | 51.23 ± 0.31 |  | 87.21 ± 0.31 | 60.2 ± 0.66 | 71.31 ± 0.09 |  |  |  | 
13 | CCOc1cc(Br)c(Br)cc1N(Cc1ccccc1Cl)S(=O)(=O)c1ccccc1 [Compound 6k] |  | 86.71 ± 0.22 |  | 33.23 ± 0.22 | NIL | 93.66 ± 0.82 | 42.21 ± 0.25 | 52.41 ± 0.27 |  |  |  | 
14 | CCOc1cc(Br)c(Br)cc1N(Cc1ccc(Cl)cc1)S(=O)(=O)c1ccccc1 [Compound 6l] |  | 82.94 ± 0.15 |  | 55.5 ± 0.84 |  | 66.31 ± 0.11 | 190.31 ± 0.17 | 126.61 ± 0.02 |  |  |  | 
